Several values for one entry are separate records, joined by “and”; a condition that tells them apart may be missing. Equal values may be shown once. Where no end group is shown, it is not given here.
Legend:
[1] = target: T1, PD-1/PD-L1 interaction (Homo sapiens, UniProt Q9NZQ7); experiment: PD-1/PD-L1 blockade bioassay (Promega); type: cell-based; conditions: antibodies from immunized rabbits, compared to Nivolumab and Atezolizumab
T1 construct: host or cells: PD-L1 aAPC/CHO-K1 cells and PD-1 effector cells
Experimental: The assay was performed following the manufacturer's protocol for the PD-1/PD-L1 blockade bioassay (Promega).
The bioluminescent cell-based PD-1/PD-L1 blockade bioassays provide a good option for rapid screening of therapeutic antibodies or other compounds developed to interfere with PD-1-signaling interaction. PD1/PD-L1 blockade assay was used to test the functionality of 3 anti-PD-L1 antibodies. It was observed that purified polyclonal anti-PD-L1 antibody from the rabbits was able to block PD1/PD-L1 interaction similar to commercial anti-human PD-L1 antibody (FIG. 12). […] In FIG. 12, we show the capacity of each of the PD-L1 vaccines to block the PD-1:PD-L1 interaction as compared to Nivolumab and Atezolizumab. Remarkably only PD-L1 130-147 antibodies were effective
The assay was performed following the manufacturer's protocol for the PD-1/PD-L1 blockade bioassay (Promega). In brief, 4×10^5 aAPC/CHO-K1 or PD-L1 aAPC/CHO-K1 cells were seeded into 96-well plates in RPMI-1640 with 10% FBS. After overnight culturing, the medium was aspirated, and serially diluted purified PD-L1 or PD-1 antibodies, as well as Nivolumab and Atezolizumab antibodies (as reference antibodies) were added. Next, PD-1 effector cells were co-cultured and plate was kept for 5 h at 37° C. in a humidified 5% CO2 incubator. Following mixing with Bio-Glo Reagent, the luminescence was measured with a luminescence plate reader, SpectraMax M3 plate reader (Molecular Devices).

[2] = tested on: MVF-PD-L1 peptide immunogen; experiment: Immunogenicity in Balb/c mice, experiment 2 (CT26/HER-2): ELISA of sera vs each MVF-PD-L1 peptide immunogen; type: in vivo
Experimental: Immunogenicity of MVF-PD-L1 B-cell epitopes. New Zealand White rabbits were immunized with 1 mg of each MVF-peptide immunogens dissolved in dd H2O emulsified (1:1) in Montanide ISA 720 vehicle (Seppic) with 333 μg of N-acetylglucosamine-3yl-acetyl-1-alanyl-d-isoglutamine (nor-MDP). Rabbits were boosted with the same doses at 3-week's intervals. Blood was collected via the central auricular artery in rabbits. Blood was collected weekly (1Y+3, 2Y+1, 2Y+2,2Y+3, 3Y+1, 3Y+2 and sera tested for antibody titers by ELISA using the immunogens MVF-PD-L1 peptides. Sera (terminal) from rabbit (3Y+3) immunized with MVF-PD-1 peptide immunogens were tested individually versus the immunogen by ELISA. 200 ng/well peptide were used in duplicates to coat the ELISA plates. Titers are defined as the highest dilution of sera with an absorbance value of 0.2 after subtracting the blank. […]
In order to verify the efficacy of the PD-L1 epitope vaccines in vivo in the CT26/HER-2 carcinoma cell line, Balb/c mice (10 mice/group) were immunized with 100 μg each of MVF-PD-L1 (36-53), MVF-PD-L1 (50-67), MVF-PD-L1 (95-112) and MVF-PD-L1 (130-147) emulsified with nor-MDP and Montanide 720 (1:1 ratio) SCHEME 2A (FIG. 15A). As detailed in SCHEME 2A-D (FIGS. 15A, 15B, 15C, and 15D), mice were immunized 3 times at 3 weeks intervals. […] All PD-L1 epitopes elicited high titers of PD-L1 anti-peptide antibodies by ELISA. […] We also investigated the combination of PD-1(92-110) with PD-L1-95.
For each peptide, vaccine antibodies were raised in New Zealand white rabbits, purchased from Charles River Laboratories (Wilmington, MA, USA). Rabbits were immunized with 1 mg of MVF chimeric peptide emulsified in Montanide ISA 720 (Seppic, Paris, France) and boosted 3 times at three week intervals. For mouse experiments, mice, 6-8 weeks old, were immunized with 0.1 mg of peptide emulsified in ISA720 (1:1 ratio). Mice were boosted with the respective doses at 3-week intervals. Blood was then collected and sera were tested for antibody titers. Sera were collected weekly and peptide vaccine antibodies were purified by affinity chromatography using a protein A/G column and the concentration was measured using Spectrophometer. All experiments were performed in accordance with the U.S. Public Health Service Policy on Humane Care and Use of Laboratory animals and approved by the Ohio State University Institutional Animals Care and Use Committee, detailed in the accepted protocol.
6-8 weeks old BALB/c mice (Charles River, Wilmington, MA) were used as standard animal models. Mouse CT26 colon carcinoma cell line was purchased from American Type Culture Collection Cells and were regularly cultured in RPMI1640 medium containing 10% FBS. CT26/HER2 cells were kindly provided by M. Penichet. Vaccines were dissolved in sterile water and emulsified in Montanide ISA 720 (1:1). Female Balb/c mice (Charles River Laboratories) at the age of 6-8 weeks were immunized three times at 3-week intervals with 100 μg of each peptide vaccine, and 2 weeks after the third immunization, the mice were challenged with CT26 and/or CT26/HER-2 tumor cells, which were implanted subcutaneously (s.c) on the right flank (1×10^5 per mouse). 200 μg of rat α-mouse PD-L1 mAb 10F.9G2 (Bio X Cell, West Lebanon, NH) were administered intraperitoneally (i.p.), twice weekly following tumor inoculation in the control group. Mice were monitored and scored for the formation of palpable tumors on a daily basis and sacrificed if tumors became necrotic or exceeded the predetermined size of 2,000 mm^3. Tumor volumes were measured in cubic millimeters with calipers and calculated with the following formula: A×B^2×0.5, where A is the largest diameter, and B is the widest point perpendicular to length. During immunization, blood was drawn weekly and used in ELISA to monitor antibody titers.

T1 sequence (Q9NZQ7 19-290): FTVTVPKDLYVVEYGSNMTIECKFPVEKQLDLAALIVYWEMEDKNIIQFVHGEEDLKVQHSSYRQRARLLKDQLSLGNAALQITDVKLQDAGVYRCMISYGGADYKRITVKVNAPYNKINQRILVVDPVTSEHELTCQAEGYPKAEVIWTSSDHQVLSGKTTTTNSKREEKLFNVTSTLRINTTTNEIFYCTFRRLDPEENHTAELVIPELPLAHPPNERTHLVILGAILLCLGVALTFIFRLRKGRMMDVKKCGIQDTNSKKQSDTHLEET

KLLSLIKGVIVHRLEGVEGPSLVTSEHELTCQAEGYPKAE (KLLSLIKGVIVHRLEGVEGPSLVTSEHELTCQAEGYPKAE-NH2) [PD-L1(130)]
blocking of PD-1/PD-L1 interaction [1]: able to inhibit PD-1/PD-L1
Immunogenicity (titers) 1′ Conc. 1: ([2]; bleed 1Y + 3, (1to100)): 1600
ELISA plate reading of serum ([2]; bleed 1Y + 3, (1to100), dilution 800, duplicate wells): 0.449 and 0.439
ELISA plate reading of serum ([2]; bleed 1Y + 3, (1to100), dilution 1,600, duplicate wells): 0.262 and 0.245
ELISA plate reading of serum ([2]; bleed 1Y + 3, (1to100), dilution 6,400, duplicate wells): 0.072 and 0.050
ELISA plate reading of serum ([2]; bleed 1Y + 3, (1to100), dilution 12,800, duplicate wells): 0.040 and 0.030
ELISA plate reading of serum ([2]; bleed 1Y + 3, (1to100), dilution row 100, duplicate wells): 1.023 and 1.039
ELISA plate reading of serum ([2]; bleed 1Y + 3, (1to100), dilution row 200, duplicate wells): 0.861 and 0.849
ELISA plate reading of serum ([2]; bleed 1Y + 3, (1to100), dilution row 400, duplicate wells): 0.671 and 0.672
ELISA plate reading of serum ([2]; bleed 1Y + 3, (1to100), dilution row 3,200, duplicate wells): 0.148 and 0.110
Immunogenicity (titers) 1′ Conc. 1: ([2]; bleed 2Y + 1, (1to100)): 6400
ELISA plate reading of serum ([2]; bleed 2Y + 1, (1to100), dilution 800, duplicate wells, bleed 2Y + 1): 1.118 and 1.079
ELISA plate reading of serum ([2]; bleed 2Y + 1, (1to100), dilution 1,600, duplicate wells, bleed 2Y + 1): 0.819 and 0.774
ELISA plate reading of serum ([2]; bleed 2Y + 1, (1to100), dilution 6,400, duplicate wells, bleed 2Y + 1): 0.311 and 0.286
ELISA plate reading of serum ([2]; bleed 2Y + 1, (1to100), dilution 12,800, duplicate wells, bleed 2Y + 1): 0.175 and 0.162
ELISA plate reading of serum ([2]; bleed 2Y + 1, (1to100), dilution row 100, duplicate wells, bleed 2Y + 1): 1.606 and 1.563
ELISA plate reading of serum ([2]; bleed 2Y + 1, (1to100), dilution row 200, duplicate wells, bleed 2Y + 1): 1.477 and 1.479
ELISA plate reading of serum ([2]; bleed 2Y + 1, (1to100), dilution row 400, duplicate wells, bleed 2Y + 1): 1.378 and 1.347
ELISA plate reading of serum ([2]; bleed 2Y + 1, (1to100), dilution row 3,200, duplicate wells, bleed 2Y + 1): 0.516 and 0.492
Immunogenicity (titers) 1′ Conc. 1: ([2]; bleed 2Y + 2, (1to1k)): 16000
ELISA plate reading of serum ([2]; bleed 2Y + 2, (1to1k), dilution 800, duplicate wells): 0.407 and 0.427
ELISA plate reading of serum ([2]; bleed 2Y + 2, (1to1k), dilution 1,600, duplicate wells): 0.280 and 0.257
ELISA plate reading of serum ([2]; bleed 2Y + 2, (1to1k), dilution 6,400, duplicate wells): 0.064 and 0.061
ELISA plate reading of serum ([2]; bleed 2Y + 2, (1to1k), dilution row 100, duplicate wells): 1.476 and 1.437
ELISA plate reading of serum ([2]; bleed 2Y + 2, (1to1k), dilution row 200, duplicate wells): 1.131 and 1.086
ELISA plate reading of serum ([2]; bleed 2Y + 2, (1to1k), dilution row 400, duplicate wells): 0.767 and 0.735
ELISA plate reading of serum ([2]; bleed 2Y + 2, (1to1k), dilution row 3,200, duplicate wells): 0.145 and 0.132
Immunogenicity (titers) 1′ Conc. 1: ([2]; bleed 2Y + 3, (1to1k)): 64000
ELISA plate reading of serum ([2]; bleed 2Y + 3, (1to1k), dilution 800, duplicate wells): 1.024 and 0.946
ELISA plate reading of serum ([2]; bleed 2Y + 3, (1to1k), dilution 1,600, duplicate wells): 0.699 and 0.615
ELISA plate reading of serum ([2]; bleed 2Y + 3, (1to1k), dilution 6,400, duplicate wells): 0.246 and 0.233
ELISA plate reading of serum ([2]; bleed 2Y + 3, (1to1k), dilution row 100, duplicate wells): 1.711 and 1.644
ELISA plate reading of serum ([2]; bleed 2Y + 3, (1to1k), dilution row 200, duplicate wells): 1.518 and 1.488
ELISA plate reading of serum ([2]; bleed 2Y + 3, (1to1k), dilution row 400, duplicate wells): 1.317 and 1.263
ELISA plate reading of serum ([2]; bleed 2Y + 3, (1to1k), dilution row 3,200, duplicate wells): 0.435 and 0.430
Immunogenicity (titers) 1′ Conc. 1: ([2]; bleed 3Y + 1, (1to1k)): 64000
ELISA plate reading of serum ([2]; bleed 3Y + 1, (1to1k), dilution 800, duplicate wells, bleed 3Y + 1): 1.176 and 1.158
ELISA plate reading of serum ([2]; bleed 3Y + 1, (1to1k), dilution 1,600, duplicate wells, bleed 3Y + 1): 0.801 and 0.729
ELISA plate reading of serum ([2]; bleed 3Y + 1, (1to1k), dilution 6,400, duplicate wells, bleed 3Y + 1): 0.219 and 0.206
ELISA plate reading of serum ([2]; bleed 3Y + 1, (1to1k), dilution row 100, duplicate wells, bleed 3Y + 1): 1.928 and 1.945
ELISA plate reading of serum ([2]; bleed 3Y + 1, (1to1k), dilution row 200, duplicate wells, bleed 3Y + 1): 1.823 and 1.707
ELISA plate reading of serum ([2]; bleed 3Y + 1, (1to1k), dilution row 400, duplicate wells, bleed 3Y + 1): 1.516 and 1.458
ELISA plate reading of serum ([2]; bleed 3Y + 1, (1to1k), dilution row 3,200, duplicate wells, bleed 3Y + 1): 0.438 and 0.427
Immunogenicity (titers) 1′ Conc. 1: ([2]; bleed 3Y + 2, (1to1k)): 64000
ELISA plate reading of serum ([2]; bleed 3Y + 2, (1to1k), dilution 800, duplicate wells, bleed 3Y + 2): 1.412 and 1.389
ELISA plate reading of serum ([2]; bleed 3Y + 2, (1to1k), dilution 1,600, duplicate wells, bleed 3Y + 2): 0.961 and 0.874
ELISA plate reading of serum ([2]; bleed 3Y + 2, (1to1k), dilution 6,400, duplicate wells, bleed 3Y + 2): 0.262
ELISA plate reading of serum ([2]; bleed 3Y + 2, (1to1k), dilution row 100, duplicate wells, bleed 3Y + 2): 2.313 and 2.334
ELISA plate reading of serum ([2]; bleed 3Y + 2, (1to1k), dilution row 200, duplicate wells, bleed 3Y + 2): 2.188 and 2.048
ELISA plate reading of serum ([2]; bleed 3Y + 2, (1to1k), dilution row 400, duplicate wells, bleed 3Y + 2): 1.819 and 1.749
ELISA plate reading of serum ([2]; bleed 3Y + 2, (1to1k), dilution row 3,200, duplicate wells, bleed 3Y + 2): 0.526 and 0.512
Immunogenicity (titers) 1′ Conc. 1: ([2]; bleed 3Y + 3, (1to1k)): 64000
ELISA plate reading of serum ([2]; bleed 3Y + 3, (1to1k), dilution 800, duplicate wells): 1.445 and 1.468
ELISA plate reading of serum ([2]; bleed 3Y + 3, (1to1k), dilution 1,600, duplicate wells): 0.909 and 0.999
ELISA plate reading of serum ([2]; bleed 3Y + 3, (1to1k), dilution 6,400, duplicate wells): 0.257
ELISA plate reading of serum ([2]; bleed 3Y + 3, (1to1k), dilution row 100, duplicate wells): 2.427 and 2.406
ELISA plate reading of serum ([2]; bleed 3Y + 3, (1to1k), dilution row 200, duplicate wells): 2.130 and 2.275
ELISA plate reading of serum ([2]; bleed 3Y + 3, (1to1k), dilution row 400, duplicate wells): 1.819 and 1.892
ELISA plate reading of serum ([2]; bleed 3Y + 3, (1to1k), dilution row 3,200, duplicate wells): 0.532 and 0.547

KLLSLIKGVIVHRLEGVEGPSLLIVYWEMEDKNIIQFVHG (KLLSLIKGVIVHRLEGVEGPSLLIVYWEMEDKNIIQFVHG-NH2) [PD-L1(36)]
Immunogenicity (titers) 1′ Conc. 1: ([2]; Balb/c mice, bleed 1Y + 3): 0
Immunogenicity (titers) 1′ Conc. 1: ([2]; Balb/c mice, bleed 2Y + 1): 1600
Immunogenicity (titers) 1′ Conc. 1: ([2]; Balb/c mice, bleed 2Y + 2): 4000
Immunogenicity (titers) 1′ Conc. 1: ([2]; Balb/c mice, bleed 2Y + 3): 32000
Immunogenicity (titers) 1′ Conc. 1: ([2]; Balb/c mice, bleed 3Y + 1): 16000
Immunogenicity (titers) 1′ Conc. 1: ([2]; Balb/c mice, bleed 3Y + 2): 32000
Immunogenicity (titers) 1′ Conc. 1: ([2]; Balb/c mice, bleed 3Y + 3): 16000

From US12589143B2, “Human anti-PD-L1 peptide vaccines and methods of their use” (priority 2019, dated 2026)
